In the test the target is T1, BaF3 BRAF-KIAA1549 fusion cells (Homo sapiens, UniProt P15056).
T1 construct: The BRAF-KIAA1549 fusion mutant was subcloned into pMXs-IRES-Blasticidin (RTV-016, Cell Biolabs, San Diego, CA); No tag given; Q9HCM3 (UPF0606 protein KIAA1549)
In words: BaF3 BRAF-KIAA1549 fusion cell proliferation assay (CellTiterGlo, 96 hours). It is filed as cell-based. The conditions noted are these: Table A2. In outline:
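BaF3 cells retrovirally transduced with BRAF-KIAA1549 fusion and blasticidin-selected were plated at 7×10^4 c/well in RPMI, 10% heat-inactivated FBS, 1% L-glutamine, and exposed to compound for 96 hours. Growth was read as ATP content by CellTiterGlo luminescence. IC50 was fitted by Levenberg-Marquardt, normalised to DMSO-treated cells.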

In US20250017914A1, “6-AZA-QUINOLINE DERIVATIVES AND RELATED USES” (Black Diamond Therapeutics, Inc., priority 2021, published 2025) one finds GI50 data, which are given here for 30 molecules.

As usually defined, the GI50 is the concentration giving 50% growth inhibition. Low readings indicate more potent growth inhibition, high ones less potent growth inhibition.

T1 sequence (P15056 whole entry, change not shown, the tested form may be a part): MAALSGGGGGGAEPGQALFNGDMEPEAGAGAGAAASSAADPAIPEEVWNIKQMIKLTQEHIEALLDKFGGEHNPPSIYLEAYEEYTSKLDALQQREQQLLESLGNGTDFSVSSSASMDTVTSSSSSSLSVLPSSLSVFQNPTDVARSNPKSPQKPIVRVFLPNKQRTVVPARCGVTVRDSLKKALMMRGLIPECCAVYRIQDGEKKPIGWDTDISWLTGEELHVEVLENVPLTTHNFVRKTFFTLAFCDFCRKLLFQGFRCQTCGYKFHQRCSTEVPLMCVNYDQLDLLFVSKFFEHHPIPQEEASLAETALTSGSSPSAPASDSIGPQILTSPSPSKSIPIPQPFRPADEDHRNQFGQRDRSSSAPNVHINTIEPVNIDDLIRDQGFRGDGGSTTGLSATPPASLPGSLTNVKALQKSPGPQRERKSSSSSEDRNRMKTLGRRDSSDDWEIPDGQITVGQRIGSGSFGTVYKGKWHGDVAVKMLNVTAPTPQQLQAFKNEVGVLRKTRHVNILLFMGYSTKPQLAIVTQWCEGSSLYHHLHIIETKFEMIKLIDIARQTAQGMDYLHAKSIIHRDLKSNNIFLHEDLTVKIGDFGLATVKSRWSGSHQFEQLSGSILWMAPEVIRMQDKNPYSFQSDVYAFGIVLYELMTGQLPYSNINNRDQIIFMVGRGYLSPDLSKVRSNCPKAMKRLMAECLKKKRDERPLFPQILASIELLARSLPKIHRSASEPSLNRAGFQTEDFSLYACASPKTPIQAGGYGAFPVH

Regarding `CNc1cc2ncc(-c3cc(NC(=O)c4csc5c4CCCC5)cnc3C)cc2cn1` [Compound 234, N-(6-methyl-5-(7-(methylamino)-1,6-naphthyridin-3-yl)pyridin-3-yl)-4,5,6,7-tetrahydrobenzo[b]thiophene-3-carboxamide], the GI50 lay in the range of 20 to 100 nM.

`CNc1cc2ncc(-c3cc(NC(=O)c4csc5c4CCC(C)C5)cnc3C)cc2cn1` (stereo not drawn) [Compound 235, 6-methyl-N-(6-methyl-5-(7-(methylamino)-1,6-naphthyridin-3-yl)pyridin-3-yl)-4,5,6,7-tetrahydrobenzo[b]thiophene-3-carboxamide] gave a GI50 of 20 to 100 nM.

In the case of `CNc1cc2ncc(-c3cc(NC(=O)c4cnc5n4CC(C(F)F)CC5)ccc3C)cc2cn1` (stereo not drawn) [Compound 238, 6-(difluoromethyl)-N-(4-methyl-3-(7-(methylamino)-1,6-naphthyridin-3-yl)phenyl)-5,6,7,8-tetrahydroimidazo[1,2-a]pyridine-3-carboxamide], the concentration for 50% growth inhibition (GI50) was 20 to 100 nM.

`CNc1cc2ncc(-c3cc(NC(=O)c4cccc5c4OC(C)C5)cnc3C)cc2cn1` (stereo not drawn) [Compound 239, 2-methyl-N-(6-methyl-5-(7-(methylamino)-1,6-naphthyridin-3-yl)pyridin-3-yl)-2,3-dihydrobenzofuran-7-carboxamide]: the GI50 was no less than 500 nM.

`CNc1cc2ncc(-c3cc(NC(=O)c4cnn(CC(F)(F)F)c4C)cnc3C)cc2cn1` [Compound 240, 5-methyl-N-(6-methyl-5-(7-(methylamino)-1,6-naphthyridin-3-yl)pyridin-3-yl)-1-(2,2,2-trifluoroethyl)-1H-pyrazole-4-carboxamide] showed a GI50 of no less than 500 nM.

Molecule `CNc1cc2ncc(-c3cc(NC(=O)c4noc5c4CC(C(C)(C)C)CC5)cnc3C)cc2cn1` (stereo not drawn) [Compound 241, 5-(tert-butyl)-N-(6-methyl-5-(7-(methylamino)-1,6-naphthyridin-3-yl)pyridin-3-yl)-4,5,6,7-tetrahydrobenzo[d]isoxazole-3-carboxamide] yielded a GI50 of 100 to 500 nM.

On to `CNc1cc2ncc(-c3cc(NC(=O)c4cc(C(O)CC(F)(F)F)ccn4)cnc3C)cc2cn1` (stereo not drawn) [Compound 242, N-(6-methyl-5-(7-(methylamino)-1,6-naphthyridin-3-yl)pyridin-3-yl)-4-(3,3,3-trifluoro-1-hydroxypropyl)picolinamide], for which the GI50 was 20 to 100 nM.

On to `CNc1cc2ncc(-c3cc(NC(=O)c4cnc5n4CC(C(F)(F)F)CC5)cnc3C)cc2cn1` (stereo not drawn) [Compound 243], for which the GI50 was in the range of 20 to 100 nM.

For `CNc1cc2ncc(-c3cc(NC(=O)c4n[nH]c5c4CN(C)CC5)cnc3C)cc2cn1` [Compound 244, 5-methyl-N-(6-methyl-5-(7-(methylamino)-1,6-naphthyridin-3-yl)pyridin-3-yl)-4,5,6,7-tetrahydro-1H-pyrazolo[4,3-c]pyridine-3-carboxamide], the GI50 is no less than 500 nM.

`CNc1cc2ncc(-c3cc(NC(=O)c4noc5c4CCCCC5)cnc3C)cc2cn1` [Compound 245, N-(6-methyl-5-(7-(methylamino)-1,6-naphthyridin-3-yl)pyridin-3-yl)-5,6,7,8-tetrahydro-4H-cyclohepta[d]isoxazole-3-carboxamide] showed a concentration for 50% growth inhibition (GI50) of 20 to 100 nM.

With `CNc1cc2ncc(-c3cc(NC(=O)c4noc5c4COCC5)cnc3C)cc2cn1` [Compound 246, N-(6-methyl-5-(7-(methylamino)-1,6-naphthyridin-3-yl)pyridin-3-yl)-6,7-dihydro-4H-pyrano[3,4-d]isoxazole-3-carboxamide], the GI50 is no less than 500 nM.

With `CNc1cc2ncc(-c3cc(NC(=O)c4noc5c4CC(F)(F)CC5)cnc3C)cc2cn1` [Compound 247, 5,5-difluoro-N-(6-methyl-5-(7-(methylamino)-1,6-naphthyridin-3-yl)pyridin-3-yl)-4,5,6,7-tetrahydrobenzo[d]isoxazole-3-carboxamide], the GI50 was in the range of 20 to 100 nM.

Consider `CNCC(F)(F)c1cccc(C(=O)Nc2cnc(C)c(-c3cnc4cc(NC)ncc4c3)c2)n1` [Compound 250, 6-(1,1-difluoro-2-(methylamino)ethyl)-N-(6-methyl-5-(7-(methylamino)-1,6-naphthyridin-3-yl)pyridin-3-yl)picolinamide], for which the GI50 is no less than 500 nM.

On to `CNc1cc2ncc(-c3cc(NC(=O)c4cnc5n4CC(C(F)F)CC5)cnc3C)cc2cn1` (stereo not drawn) [Compound 251, 6-(difluoromethyl)-N-(6-methyl-5-(7-(methylamino)-1,6-naphthyridin-3-yl)pyridin-3-yl)-5,6,7,8-tetrahydroimidazo[1,2-a]pyridine-3-carboxamide], for which the GI50 lay in the range of 100 to 500 nM.

Take `CNc1cc2ncc(-c3cc(NC(=O)c4n[nH]c5c4C[C@@H]4C[C@H]54)cnc3C)cc2cn1` [Compound 252, (4aS,5aS)—N-(6-methyl-5-(7-(methylamino)-1,6-naphthyridin-3-yl)pyridin-3-yl)-4,4a,5,5a-tetrahydro-1H-cyclopropa[4,5]cyclopenta[1,2-c]pyrazole-3-carboxamide]: the GI50 was in the range of 20 to 100 nM.

Molecule `CNc1cc2ncc(-c3cc(NC(=O)c4n[nH]c5c4C[C@H]4C[C@@H]54)cnc3C)cc2cn1` [Compound 253, (4aR,5aR)—N-(6-methyl-5-(7-(methylamino)-1,6-naphthyridin-3-yl)pyridin-3-yl)-4,4a,5,5a-tetrahydro-1H-cyclopropa[4,5]cyclopenta[1,2-c]pyrazole-3-carboxamide] yielded a GI50 of 20 to 100 nM.

As to `CNc1cc2ncc(-c3cc(NC(=O)c4noc5c4CN(C(C)C)CC5)cnc3C)cc2cn1` [Compound 254, 5-isopropyl-N-(6-methyl-5-(7-(methylamino)-1,6-naphthyridin-3-yl)pyridin-3-yl)-4,5,6,7-tetrahydroisoxazolo[4,5-c]pyridine-3-carboxamide], the GI50 fell in the range of 100 to 500 nM.

As for `CNc1cc2ncc(-c3cc(NC(=O)c4cc(C(C)(C)C(N)=O)ccn4)ccc3C)cc2cn1` [Compound 255], the GI50 was in the range of 20 to 100 nM.

`CNc1cc2ncc(-c3cc(NC(=O)c4nccc(C(C)C)c4Cl)cnc3C)cc2cn1` [Compound 256, 3-chloro-4-isopropyl-N-(6-methyl-5-(7-(methylamino)-1,6-naphthyridin-3-yl)pyridin-3-yl)picolinamide] came in with a GI50 of 20 to 100 nM.

Molecule `CNc1cc2ncc(-c3cc(NC(=O)c4noc5c4CC(C)(C)CC5)cnc3C)cc2cn1` [Compound 257, 5,5-dimethyl-N-(6-methyl-5-(7-(methylamino)-1,6-naphthyridin-3-yl)pyridin-3-yl)-4,5,6,7-tetrahydrobenzo[d]isoxazole-3-carboxamide] displayed a GI50 of 20 to 100 nM.

`CCC(OC)c1ccnc(C(=O)Nc2cnc(C)c(-c3cnc4cc(NC)ncc4c3)c2)c1` (stereo not drawn) [Compound 260, 4-(1-methoxypropyl)-N-(6-methyl-5-(7-(methylamino)-1,6-naphthyridin-3-yl)pyridin-3-yl)picolinamide] had a GI50 of 20 to 100 nM.

Regarding `CNc1cc2ncc(-c3cc(NC(=O)c4n[nH]c5c4CC(C)CC5)ccc3C)cc2cn1` (stereo not drawn) [Compound 261, 5-methyl-N-(4-methyl-3-(7-(methylamino)-1,6-naphthyridin-3-yl)phenyl)-4,5,6,7-tetrahydro-1H-indazole-3-carboxamide], the GI50 is less than 20 nM.

`CNc1cc2ncc(-c3cc(NC(=O)c4n[nH]c5c4CCCC5(C)C)ccc3C)cc2cn1` [Compound 262, 7,7-dimethyl-N-(4-methyl-3-(7-(methylamino)-1,6-naphthyridin-3-yl)phenyl)-4,5,6,7-tetrahydro-1H-indazole-3-carboxamide] displayed a GI50 of 20 to 100 nM.

Molecule `CNc1cc2ncc(-c3cc(NC(=O)c4c[nH]c5ccc(C)cc45)ccc3C)cc2cn1` [Compound 263, 5-methyl-N-(4-methyl-3-(7-(methylamino)-1,6-naphthyridin-3-yl)phenyl)-1H-indole-3-carboxamide] gave a concentration for 50% growth inhibition (GI50) of less than 20 nM.

For `CNc1cc2ncc(-c3cc(NC(=O)c4n[nH]c5c4C[C@H](C)O[C@@H]5C)ccc3C)cc2cn1` [Compound 264, (5S,7R)-5,7-dimethyl-N-(4-methyl-3-(7-(methylamino)-1,6-naphthyridin-3-yl)phenyl)-1,4,5,7-tetrahydropyrano[3,4-c]pyrazole-3-carboxamide], the 50% growth inhibitory concentration (GI50) lay within 20 to 100 nM.

As to `CNc1cc2ncc(-c3cc(NC(=O)c4cnn5c4CC(C)CC5)ccc3C)cc2cn1` (stereo not drawn) [Compound 265, 5-methyl-N-(4-methyl-3-(7-(methylamino)-1,6-naphthyridin-3-yl)phenyl)-4,5,6,7-tetrahydropyrazolo[1,5-a]pyridine-3-carboxamide], the concentration for 50% growth inhibition (GI50) was less than 20 nM.

As to `CNc1cc2ncc(-c3cc(NC(=O)c4c[nH]c5c4CC(C)CC5)ccc3C)cc2cn1` (stereo not drawn) [Compound 266, 5-methyl-N-(4-methyl-3-(7-(methylamino)-1,6-naphthyridin-3-yl)phenyl)-4,5,6,7-tetrahydro-1H-indole-3-carboxamide], the GI50 was in the range of 20 to 100 nM.

Regarding `CNc1ncc2cc(-c3cc(NC(=O)c4ccnc(C5(F)CC5)c4)ccc3C)cnc2c1Cl` [Compound 269, N-[3-[8-chloro-7-(methylamino)-1,6-naphthyridin-3-yl]-4-methyl-phenyl]-2-(1-fluorocyclopropyl)pyridine-4-carboxamide], the GI50 fell in the range of 100 to 500 nM.

`CNc1ncc2cc(-c3cc(NC(=O)c4ccnc(C(C)(C)C#N)c4)cnc3C)cnc2c1Cl` [Compound 270, N-[5-[8-chloro-7-(methylamino)-1,6-naphthyridin-3-yl]-6-methyl-3-pyridyl]-2-(1-cyano-1-methyl-ethyl)pyridine-4-carboxamide] showed a GI50 of no less than 500 nM.

Take `CNc1ncc2cc(-c3cc(NC(=O)c4ccnc(C5(F)CC5)c4)ccc3C)cnc2c1C#N` [Compound 271, N-[3-[8-cyano-7-(methylamino)-1,6-naphthyridin-3-yl]-4-methyl-phenyl]-2-(1-fluorocyclopropyl)pyridine-4-carboxamide]: the GI50 is 20 to 100 nM.
